Results on 21 compounds are retold here after patent publication US9365522B2, “Pyrazole amide derivative” (AMGEN INC., priority 2015, dated 2016).

This test addresses T1, human RORγ-LBD (Homo sapiens, UniProt P51449).
T1 construct: made in house; host or cells: E. coli (BL-21)
T1 sequence (P51449 262-518): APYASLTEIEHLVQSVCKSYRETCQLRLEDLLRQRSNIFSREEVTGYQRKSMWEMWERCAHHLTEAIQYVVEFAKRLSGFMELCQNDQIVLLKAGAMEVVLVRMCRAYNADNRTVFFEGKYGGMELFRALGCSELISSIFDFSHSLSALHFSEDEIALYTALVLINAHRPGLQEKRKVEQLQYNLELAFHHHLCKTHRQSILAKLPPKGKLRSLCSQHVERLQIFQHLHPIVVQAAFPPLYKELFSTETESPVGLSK
In words: ROR gamma coactivator peptide recruitment Alphascreen assay (RORγ-LBD binding to GRIP1 coactivator peptide). It is filed as biochemical. The conditions noted are these: 5 nM human RORγ-LBD, 30 nM 7-β-hydroxycholesterol, 50 nM biotinylated GRIP1 coactivator peptide, overnight incubation at room temperature; read-out: result (pIC50, RORγ coactivator peptide recruitment Alphascreen assay) (converted). An outline of the steps:
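Alphascreen proximity read-out after overnight room-temperature incubation, yielding pIC50 from 1-in-2 compound series (2.5% DMSO final). Mixture: 50 nM biotin-GRIP1 peptide, 30 nM 7-β-hydroxycholesterol agonist, 5 nM recombinant 6×His:Flag human RORγ-LBD (aa 262-518), 50 mM HEPES pH 7.4.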

Consider `C[C@@H]1C[C@@H](n2ncc(C(=O)N(CC(=O)c3c(Cl)cncc3Cl)CC3(F)CCCC3)c2C(F)(F)F)CC[C@@H]1C(=O)O` [Example 810, (1S,2R,4S)-4-(4-((2-(3,5-dichloro-4-pyridinyl)-2-oxoethyl)((1-fluorocyclopentyl)methyl)carbamoyl)-5-(trifluoromethyl)-1H-pyrazol-1-yl)-2-methylcyclohexanecarboxylic acid], for which the IC50 is 3.09 nM.
Consider `C[C@@H]1C[C@@H](n2ncc(C(=O)N(CC(=O)c3c(Cl)cccc3Cl)CC3(C(F)(F)F)CC3)c2C(F)(F)F)CC[C@@H]1C(=O)O` [Example 811, (1S,2R,4S)-4-(4-((2-(2,6-dichlorophenyl)-2-oxoethyl)((1-(trifluoromethyl)cyclopropyl)methyl)carbamoyl)-5-(trifluoromethyl)-1H-pyrazol-1-yl)-2-methylcyclohexanecarboxylic acid], for which the IC50 was 1.78 nM.
As for `C[C@@H]1C[C@H](n2ncc(C(=O)N(CC(=O)c3c(Cl)cncc3Cl)CC(C)(C)C)c2C(F)(F)F)CC[C@H]1C(=O)O` [Example 812, (1R,2R,4R)-4-(4-((2-(3,5-dichloro-4-pyridinyl)-2-oxoethyl)(2,2-dimethylpropyl)carbamoyl)-5-(trifluoromethyl)-1H-pyrazol-1-yl)-2-methylcyclohexanecarboxylic acid], the IC50 was 9.33 nM.
For `C[C@]1(CN(CC(=O)c2c(Cl)ccc(F)c2Cl)C(=O)c2cnn([C@H]3CC[C@](C)(C(=O)O)CC3)c2C(F)(F)F)CCCO1` [Example 814, trans-4-(4-((2-(2,6-dichloro-3-fluorophenyl)-2-oxoethyl)(((2R)-2-methyltetrahydro-2-furanyl)methyl)carbamoyl)-5-(trifluoromethyl)-1H-pyrazol-1-yl)-1-methylcyclohexanecarboxylic acid] the value was 9.12 nM.
For `C[C@@]1(CN(CC(=O)c2c(Cl)ccc(F)c2Cl)C(=O)c2cnn([C@H]3CC[C@](C)(C(=O)O)CC3)c2C(F)(F)F)CCCO1` [Example 815, trans-4-(4-((2-(2,6-dichloro-3-fluorophenyl)-2-oxoethyl)(((2S)-2-methyltetrahydro-2-furanyl)methyl)carbamoyl)-5-(trifluoromethyl)-1H-pyrazol-1-yl)-1-methylcyclohexanecarboxylic acid] the value was 12.9 nM.
With `C[C@@H]1C[C@@H](n2ncc(C(=O)N(CC(=O)c3c(Cl)cncc3Cl)[C@H]3CCC34CCC4)c2C(F)(F)F)CC[C@@H]1C(=O)O` [Example 816, (1S,2R,4S)-4-(4-((2-(3,5-dichloro-4-pyridinyl)-2-oxoethyl)((1S)-spiro[3.3]hept-1-yl)carbamoyl)-5-(trifluoromethyl)-1H-pyrazol-1-yl)-2-methylcyclohexanecarboxylic acid], the IC50 was 4.47 nM.
On to `C[C@@H]1C[C@@H](n2ncc(C(=O)N(CC(=O)c3c(Cl)cncc3Cl)[C@@H]3CCC34CCC4)c2C(F)(F)F)CC[C@@H]1C(=O)O` [Example 817, (1S,2R,4S)-4-(4-((2-(3,5-dichloro-4-pyridinyl)-2-oxoethyl)((1R)-spiro[3.3]hept-1-yl)carbamoyl)-5-(trifluoromethyl)-1H-pyrazol-1-yl)-2-methylcyclohexanecarboxylic acid], for which the IC50 was 64.6 nM.
On to `C[C@]1(C(=O)O)CC[C@H](n2ncc(C(=O)N(CC(=O)c3c(Cl)cncc3Cl)C[C@@H]3CC3(F)F)c2C(F)(F)F)CC1` [Example 818, trans-4-(4-((2-(3,5-dichloro-4-pyridinyl)-2-oxoethyl)(((1S)-2,2-difluorocyclopropyl)methyl)carbamoyl)-5-(trifluoromethyl)-1H-pyrazol-1-yl)-1-methylcyclohexanecarboxylic acid], for which the IC50 is 7.24 nM.
As to `C[C@]1(C(=O)O)CC[C@H](n2ncc(C(=O)N(CC(=O)c3c(Cl)cncc3Cl)C[C@H]3CC3(F)F)c2C(F)(F)F)CC1` [Example 819, trans-4-(4-((2-(3,5-dichloro-4-pyridinyl)-2-oxoethyl)(((1R)-2,2-difluorocyclopropyl)methyl)carbamoyl)-5-(trifluoromethyl)-1H-pyrazol-1-yl)-1-methylcyclohexanecarboxylic acid], the IC50 was 50.1 nM.
The result for `C[C@@H]1C[C@@H](n2ncc(C(=O)N(CC(=O)c3c(Cl)cncc3Cl)C[C@H]3CCCO3)c2C(F)(F)F)CC[C@@H]1C(=O)O` [Example 820, (1S,2R,4S)-4-(4-((2-(3,5-dichloro-4-pyridinyl)-2-oxoethyl)((2R)-tetrahydro-2-furanylmethyl)carbamoyl)-5-(trifluoromethyl)-1H-pyrazol-1-yl)-2-methylcyclohexanecarboxylic acid] reads 100 nM; that for `CC1(C)CC[C@H](CN(CC(=O)c2c(Cl)cccc2Cl)C(=O)c2cnn([C@H]3CC[C@](C)(C(=O)O)CC3)c2C(F)(F)F)O1` [Example 821, trans-4-(4-((2-(2,6-dichlorophenyl)-2-oxoethyl)(((2R)-5,5-dimethyltetrahydro-2-furanyl)methyl)carbamoyl)-5-(trifluoromethyl)-1H-pyrazol-1-yl)-1-methylcyclohexanecarboxylic acid], 9.77 nM.
With `CC1(CN(CC(=O)c2c(Cl)cncc2Cl)C(=O)c2cnn([C@@H]3CC[C@@H](C(=O)O)C(C)(C)C3)c2C(F)(F)F)CCC1` [Example 824, (1R,4R)-4-(4-((2-(3,5-dichloro-4-pyridinyl)-2-oxoethyl)((1-methylcyclobutyl)methyl)carbamoyl)-5-(trifluoromethyl)-1H-pyrazol-1-yl)-2,2-dimethylcyclohexanecarboxylic acid], the IC50 is 28.8 nM.
`CC1(CN(CC(=O)c2c(Cl)cncc2Cl)C(=O)c2cnn([C@H]3CC[C@H](C(=O)O)C(C)(C)C3)c2C(F)(F)F)CCC1` [Example 825, (1S,4S)-4-(4-((2-(3,5-dichloro-4-pyridinyl)-2-oxoethyl)((1-methylcyclobutyl)methyl)carbamoyl)-5-(trifluoromethyl)-1H-pyrazol-1-yl)-2,2-dimethylcyclohexanecarboxylic acid]: the IC50 was 1.38 nM.
Consider `C[C@@H]1C[C@@H](n2ncc(C(=O)N(CC(=O)c3c(Cl)cncc3Cl)C[C@H]3CCC(C)(C)O3)c2C(F)(F)F)CC[C@@H]1C(=O)O` [Example 826, (1S,2R,4S)-4-(4-((2-(3,5-dichloro-4-pyridinyl)-2-oxoethyl)(((2R)-5,5-dimethyltetrahydro-2-furanyl)methyl)carbamoyl)-5-(trifluoromethyl)-1H-pyrazol-1-yl)-2-methylcyclohexanecarboxylic acid], for which the IC50 was 18.6 nM.
Regarding `C[C@@H]1C[C@@H](n2ncc(C(=O)N(CC(=O)c3c(Cl)cncc3Cl)CC(C)(C)F)c2C(F)(F)F)CC[C@@H]1C(=O)O` [Example 829, (1S,2R,4S)-4-(4-((2-(3,5-dichloro-4-pyridinyl)-2-oxoethyl)(2-fluoro-2-methylpropyl)carbamoyl)-5-(trifluoromethyl)-1H-pyrazol-1-yl)-2-methylcyclohexanecarboxylic acid], the IC50 is 9.55 nM.
In the case of `C[C@@H]1C[C@@H](n2ncc(C(=O)N(CC(=O)c3c(Cl)cncc3Cl)CC3(C(F)(F)F)CC3)c2C(F)(F)F)CC[C@@H]1C(=O)O` [Example 830, (1S,2R,4S)-4-(4-((2-(3,5-dichloro-4-pyridinyl)-2-oxoethyl)((1-(trifluoromethyl)cyclopropyl)methyl)carbamoyl)-5-(trifluoromethyl)-1H-pyrazol-1-yl)-2-methylcyclohexanecarboxylic acid], the IC50 is 2.69 nM.
For `C[C@@H]1C[C@@H](n2ncc(C(=O)N(CC(=O)c3c(Cl)cccc3Cl)CC(C)(C)F)c2C(F)(F)F)CC[C@@H]1C(=O)O` [Example 831, (1S,2R,4S)-4-(4-((2-(2,6-dichlorophenyl)-2-oxoethyl)(2-fluoro-2-methylpropyl)carbamoyl)-5-(trifluoromethyl)-1H-pyrazol-1-yl)-2-methylcyclohexanecarboxylic acid], the IC50 is 2.63 nM.
The result for `CC(C)(F)CN(CC(=O)c1c(Cl)cccc1Cl)C(=O)c1cnn([C@H]2CC[C@](C)(C(=O)O)CC2)c1C(F)(F)F` [Example 832, trans-4-(4-((2-(2,6-dichlorophenyl)-2-oxoethyl)(2-fluoro-2-methylpropyl)carbamoyl)-5-(trifluoromethyl)-1H-pyrazol-1-yl)-1-methylcyclohexanecarboxylic acid] reads 3.89 nM; that for `Cc1cc(Cl)c(C(=O)CN(CC2CCC(C)(C)CC2)C(=O)c2cnn([C@H]3CC[C@@H](C(=O)O)CC3)c2C(F)(F)F)c(Cl)n1` [Example 833, cis-4-(4-((2-(2,4-dichloro-6-methyl-3-pyridinyl)-2-oxoethyl)((4,4-dimethylcyclohexyl)methyl)carbamoyl)-5-(trifluoromethyl)-1H-pyrazol-1-yl)cyclohexanecarboxylic acid], 5.89 nM; that for `Cc1cc(Cl)c(C(=O)CN(CC2CCCCC2)C(=O)c2cnn([C@H]3CC[C@@H](C(=O)O)CC3)c2C(F)(F)F)c(Cl)n1` [Example 834, cis-4-(4-((cyclohexylmethyl)(2-(2,4-dichloro-6-methyl-3-pyridinyl)-2-oxoethyl)carbamoyl)-5-(trifluoromethyl)-1H-pyrazol-1-yl)cyclohexanecarboxylic acid], 10 nM.
Consider `Cc1cc(Cl)c(C(=O)CN(CC2CCC(C)(C)CC2)C(=O)c2cnn([C@H]3CC[C@](C)(C(=O)O)CC3)c2C(F)(F)F)c(Cl)n1` [Example 835, trans-4-(4-((2-(2,4-dichloro-6-methyl-3-pyridinyl)-2-oxoethyl)((4,4-dimethylcyclohexyl)methyl)carbamoyl)-5-(trifluoromethyl)-1H-pyrazol-1-yl)-1-methylcyclohexanecarboxylic acid], for which the IC50 is 251 nM.
